In article PMC5386672, “Structure-guided design of purine-based probes for selective Nek2 inhibition” (Oncotarget, 2016):
“Also recorded” adds a separate entry of the source.

Tests used:
Nek2 [1] = settings: read-out: Nek2 inhibitory activity IC50; cited from earlier work
Nek2 [2] = target: T1, Nek2 (Homo sapiens, UniProt P51955); assay: Nek2 Caliper kinase inhibition assay; assay type: biochemical; settings: 30 μM ATP; for IC50: Caliper assay; for inhibition at 50 µM: @ 50 μM compound
T1 construct: purchased Invitrogen
T1 sequence (P51955 1-445): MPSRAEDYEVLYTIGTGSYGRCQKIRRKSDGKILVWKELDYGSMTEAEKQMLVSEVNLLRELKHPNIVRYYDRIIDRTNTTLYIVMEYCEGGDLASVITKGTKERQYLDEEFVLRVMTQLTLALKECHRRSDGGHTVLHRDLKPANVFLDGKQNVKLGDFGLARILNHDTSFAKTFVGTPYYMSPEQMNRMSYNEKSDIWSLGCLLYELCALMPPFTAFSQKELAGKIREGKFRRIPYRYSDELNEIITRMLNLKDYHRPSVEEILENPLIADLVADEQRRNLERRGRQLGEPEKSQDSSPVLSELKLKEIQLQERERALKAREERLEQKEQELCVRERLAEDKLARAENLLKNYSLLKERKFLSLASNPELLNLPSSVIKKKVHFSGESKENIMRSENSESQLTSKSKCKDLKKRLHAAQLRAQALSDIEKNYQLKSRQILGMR

CDK2 = CDK2 (Homo sapiens, UniProt P24941); assay: CDK2 kinase inhibition assay; assay type: biochemical; settings: 12.5 μM ATP
Plk1 = Plk1 (Homo sapiens, UniProt P53350); assay: Separate counter-screen against Plk1; assay type: biochemical
Experimental: To assess the broader kinase selectivity of this series of 6-(dialkylamino)vinyl-purines, the diethylamino derivative 71 was chosen for wider screening against 24 kinases at 2 μM inhibitor concentration (Figure 5 – method as in reference 12).

Nek2 [3] = target: T1, Nek2; assay: Effect of pre-incubation of Nek2 with inhibitor on IC50 (time-dependence); assay type: biochemical
Text: www.impactjournals.com/oncotarget/ Oncotarget, Supplementary Materials 2016
Time after inhibitor addition
(1 picture or pasted object on this page, not shown here)

Nek2 [4] = target: T1, Nek2; assay: Nek2 inhibition reversibility assay (rapid dilution); assay type: biochemical; settings: 30 min pre-incubation at ten-fold IC50, rapid 100-fold dilution
Experimental: The reversible nature of Nek2 inhibition by enamine 70 was measured using a kinase inhibition-reversibility assay. […] This solution in reaction buffer was pre-incubated with inhibitor 70 at a concentration ten-fold its IC50, calculated to afford approximately 91% inhibition of Nek2. […] Following rapid 1:100 dilution, a reaction progress curve was generated by monitoring for levels of the phosphorylated substrate as described in reference 16 using the Caliper EZ Reader II instrument at different times throughout the duration of the reaction.

[5] = HPLC analysis of enamine stability in assay media, DMSO and pH buffers; assay type: physicochemical
Experimental: To determine whether the enamines were hydrolysed under the assay conditions, the stability of representative enamine derivative 72 was assessed in a range of assay media and pH buffers. Stock solutions of 72 in each of the various media were prepared and aliquots were extracted from each solution at various time points and subjected to HPLC analysis to measure the remaining intact enamine (Figure 9).
Solutions of 10 μM 72 were prepared in100% MEM media, 100% RPMI media, 10% (v/v) FCS in MEM, 10% BSA in water (v/v), 10 % FCS (v/v) in water, or 10 % (v/v) boiled FCS in water, DMSO and phosphate buffered water at pH 2, pH 7 and pH 10 by adding 10 μL of the 1 mM working stock of 72 in MeCN to 990 μL of each medium. A 50 μL aliquot was removed directly and immediately extracted as described below. At 5, 10, 15, 30, 60, 90, 120, 180, 240, 360 and 1440 minutes after addition of the drug further aliquots of 50 μL were taken and extracted as below. At each time point the 50 μL of the test solution was added to 50 μL of acetonitrile (MeCN). Samples were mixed for 10 seconds on a vortex mixer and centrifuged at 15700 rcf for 5 minutes in a microcentrifuge. The supernatant solution from each sample was placed into an HPLC vial for analysis. Samples were analysed by reverse phase HPLC with PDA detection.

[6] = HPLC analysis of enamine stability in human plasma; assay type: in vitro ADME; settings: over a period of 24 hours
[7] = 10 min after inhibitor addition
[8] = 15 min after inhibitor addition
[9] = 30 min after inhibitor addition
[10] = 60 min after inhibitor addition

Sequence of Plk1 (P53350 whole entry): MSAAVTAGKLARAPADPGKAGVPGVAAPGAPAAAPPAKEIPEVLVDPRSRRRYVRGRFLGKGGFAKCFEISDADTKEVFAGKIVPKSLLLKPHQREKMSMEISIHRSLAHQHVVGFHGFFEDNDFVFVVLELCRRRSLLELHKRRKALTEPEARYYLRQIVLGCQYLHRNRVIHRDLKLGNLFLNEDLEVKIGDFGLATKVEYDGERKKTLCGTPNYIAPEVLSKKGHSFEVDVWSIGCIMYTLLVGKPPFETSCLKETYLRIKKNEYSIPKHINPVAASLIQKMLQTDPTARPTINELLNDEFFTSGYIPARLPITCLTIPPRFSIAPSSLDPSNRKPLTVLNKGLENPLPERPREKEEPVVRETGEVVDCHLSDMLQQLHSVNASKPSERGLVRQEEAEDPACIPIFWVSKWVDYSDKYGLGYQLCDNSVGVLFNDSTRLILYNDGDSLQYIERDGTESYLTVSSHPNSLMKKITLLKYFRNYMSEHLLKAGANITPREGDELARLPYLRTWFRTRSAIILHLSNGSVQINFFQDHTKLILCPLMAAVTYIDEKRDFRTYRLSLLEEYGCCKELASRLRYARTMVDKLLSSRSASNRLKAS

In the case of `C[C@@]12c3ccc4c(c3C(=O)c3occ(c31)C(=O)C[C@H]2O)CCC4=O` [Compound 4], the IC50 (Nek2 [1]) is given as 1.9 µM.

With `CN(C)/C=C/c1nc(Nc2ccccc2)nc2[nH]cnc12` [Compound 70, (E)-6-(2-(Dimethylamino)vinyl)-N-phenyl-9H-purin-2-amine] the IC50 (Nek2 [2]) was 0.77 µM, the IC50 (CDK2) was 3 µM and the inhibition at 10 µM (Plk1) was 41%. It also gave a Hill slope (Nek2 [3]; 2 min after inhibitor addition) of 0.73, an IC50 (Nek2 [3]; 2 min after inhibitor addition) of 1.37 µM and a Hill slope (Nek2 [3]; 5 min after inhibitor addition) of 0.59. It also gave an IC50 (Nek2 [3]; 5 min after inhibitor addition) of 0.84 µM, a Hill slope (Nek2 [3]; [7]) of 0.79 and an IC50 (Nek2 [3]; [7]) of 1.58 µM. It also gave a Hill slope (Nek2 [3]; [8]) of 0.71, an IC50 (Nek2 [3]; [8]) of 1.33 µM and a Hill slope (Nek2 [3]; [9]) of 0.72. It also gave an IC50 (Nek2 [3]; [9]) of 1.06 µM, a Hill slope (Nek2 [3]; [10]) of 0.85 and an IC50 (Nek2 [3]; [10]) of 1.47 µM. For the same compound, the “time-dependence of Nek2 inhibition” value (Nek2 [3]; pre-incubation 2-60 min) was “not to exhibit time-dependent Nek2 inhibition kinetics”, the “reversibility of Nek2 inhibition” value (Nek2 [4]) was “binds reversibly; also recorded: not an irreversible inhibitor” and the melting point was 129 to 131 °C.

In the case of `C(=C\N1CCCCCC1)/c1nc(Nc2ccccc2)nc2[nH]cnc12` [Compound 72, (E)-6-(2-(Azepan-1-yl)vinyl)-N-phenyl-9H-purin-2-amine], the “stability in DMSO” value ([5]; DMSO solutions, for over 24 h) is reported as “stable”, the “stability in standard assay media” value ([5]; MEM and RPMI media, 10 μM, HPLC) is reported as “degraded at a similar rate” and the “stability at acidic pH” value ([5]; pH 2.2) is reported as “relatively stable”. For the same compound, the “stability at neutral pH” value ([5]; pH 7) was “rapidly degraded”, the “stability at basic pH” value ([5]; pH 10.4) was “rapidly degraded” and the “stability in human plasma” value [6] was “relatively stable”.

Compound `O=S(=O)(Cc1cccc(Nc2nc(OCC3CCCCC3)c3nc[nH]c3n2)c1)N1CCNCC1` [Compound 50, 1-(3-(6-Cyclohexylmethoxy-9H-purin-2-ylamino)phenylmethanesulfonyl)piperazine] has an IC50 (Nek2 [2]) of 2.6 µM, an IC50 (CDK2) of 0.45 µM and a melting point of 127 to 128 °C.

Work on `CNC(=O)c1cccc(Nc2nc(OCC3CCCCC3)c3nc[nH]c3n2)c1` [Compound 10, 3-(6-Cyclohexylmethoxy-9H-purin-2-ylamino)-N-methylbenzamide] yielded an IC50 (Nek2 [2]) of 15 µM, an IC50 (CDK2) of 0.83 µM and a melting point of 252 to 254 °C.

In the case of `Nc1cccc(Nc2nc(OCC3CCCCC3)c3[nH]cnc3n2)c1` [Compound 22, 2-(3-Aminophenyl)amino-6-cyclohexylmethoxy-purine], the IC50 (Nek2 [2]) is reported as 5.9 µM, the IC50 (CDK2) is reported as 0.7 µM and the melting point is reported as 117 to 118 °C (dec.).

For `CCOc1nc(Nc2cccc(CC(=O)NCCCn3ccnc3)c2)nc2[nH]cnc12` [Compound 62, 2-[3-(6-Ethoxy-9H-purin-2-ylamino)-phenyl]-N-(3-imidazol-1-ylpropyl)acetamide], the IC50 (Nek2 [2]) was 2.8 µM, the IC50 (CDK2) was 5.2 µM and the melting point was 176 to 177 °C.

In the case of `CN(C)C(=S)c1cccc(Nc2nc(OCC3CCCCC3)c3nc[nH]c3n2)c1` [Compound 12, 3-(6-Cyclohexylmethoxy-9H-purin-2-ylamino)-N,N-dimethylthiobenzamide], the IC50 (Nek2 [2]) is reported as 5.2 µM, the IC50 (CDK2) is reported as 5.7 µM and the melting point is reported as 231 to 232 °C (dec.).

For `O=C(O)c1cccc(Nc2nc(OCC3CCCCC3)c3nc[nH]c3n2)c1` [Compound 23, 3-(6-Cyclohexylmethoxy-9H-purin-2-ylamino)benzoic acid], the IC50 (Nek2 [2]) was 4.3 µM, the IC50 (CDK2) was 0.99 µM and the melting point was 182 to 184 °C (dec.).

`NS(=O)(=O)Cc1cccc(Nc2nc(OCC3CCCCC3)c3nc[nH]c3n2)c1` [Compound 53, [3-(6-Cyclohexylmethoxy-9H-purin-2-ylamino)phenyl]methanesulfonamide] gave an inhibition at 50 µM (Nek2 [2]) of 81%, an IC50 (CDK2) of 0.24 µM and a melting point of 134 to 135 °C.

In the case of `CN(C)CCCNC(=O)Nc1ccc(Nc2nc(OCC3CCCCC3)c3nc[nH]c3n2)cc1` [Compound 18, 1-(4-(6-(Cyclohexylmethoxy)-9H-purin-2-ylamino)phenyl)-3-(3-(dimethylamino)propyl)urea], the IC50 (Nek2 [2]) is reported as 1.2 µM, the IC50 (CDK2) is reported as 0.72 µM and the melting point is reported as 110 to 112 °C.

For `O=C(Nc1ccc(Nc2nc(OCC3CCCCC3)c3nc[nH]c3n2)cc1)c1ccncc1` [Compound 30, N-[4-(6-Cyclohexylmethoxy-9H-purin-2-ylamino)phenyl]isonicotinamide], the inhibition at 50 µM (Nek2 [2]) was 51%, the IC50 (CDK2) was 2.2 µM and the melting point was 248 to 250 °C (dec.).

In the case of `C(=C\N1CCCC1)/c1nc(Nc2ccccc2)nc2[nH]cnc12` [Compound 69, (E)-N-Phenyl-6-(2-(pyrrolidin-1-yl)vinyl)-9H-purin-2-amine], the IC50 (Nek2 [2]) is reported as 0.34 µM, the IC50 (CDK2) is reported as 5.8 µM and the melting point is reported as 138 to 140 °C.

Work on `O=C(NCCN1CCCCC1)Nc1ccc(Nc2ncc3nc[nH]c3n2)cc1` [Compound 65, 1-(4-((9H-purin-2-yl)amino)phenyl)-3-(2-(piperidin-1-yl)ethyl)urea] yielded an IC50 (Nek2 [2]) of 4.5 µM, an inhibition at 100 µM (CDK2; @ 100 μM compound) of 30% and a melting point of 96 to 98 °C.

For `O=C(NCCN1CCOCC1)Nc1ccc(Nc2nc(OCC3CCCCC3)c3nc[nH]c3n2)cc1` [Compound 16, 1-(4-(6-(Cyclohexylmethoxy)-9H-purin-2-ylamino)phenyl)-3-(2-morpholinoethyl)urea], the IC50 (Nek2 [2]) was 2.2 µM, the IC50 (CDK2) was 1.1 µM and the melting point was 161 to 163 °C.

With `O=C(Cc1cccc(Nc2nc(OCC3CCCCC3)c3nc[nH]c3n2)c1)NC1CCCCC1` [Compound 36] the IC50 (Nek2 [2]) was 8.4 µM, the IC50 (CDK2) was 2.1 µM and the melting point was 226 to 227 °C.

Compound `CN(C)CCCCNC(=O)Cc1cccc(Nc2nc(OCC3CCCCC3)c3nc[nH]c3n2)c1` [Compound 45, 2-[3-(6-Cyclohexylmethoxy-9H-purin-2-ylamino)phenyl]-N-(4-dimethylaminobutyl)acetamide] has an IC50 (Nek2 [2]) of 0.7 µM, an IC50 (CDK2) of 0.86 µM and a melting point of 125 to 127 °C.
